Where “and” joins values, the source holds several entries; their conditions need not be identical. Equal values may be shown once.
Legend:
[1] = system: sarcoma patients; assay: Clinical outcome of sarcoma patients treated with ET-743, matched with BRCA1, ERCC1 and XPD mRNA expression in tumor samples; format: in vivo, human; set-up: PFS6 rate (progression free survival higher than 6 months) / patients achieving progression free survival >=6 months (PFS6) / overall progression free survival at 6 months (Kaplan-Meier) / median survival at 12 months: concentration or dose not given beside the values
Procedure: In this study, 61 paraffin embedded tumoral samples from sarcoma patients before the treatment with any chemotherapy agent have been evaluated.
The majority of patients were treated before with one or several chemotherapy agents and later they followed a treatment with ET-743. The dosage of intravenous infusion ET-743 given to the different patients was within the range of 1.650-1.0 mg/m2; the schedules were 24 hours or 3 hour IV infusion with a three week interval between cycles; and the number of cycles ranged from 1 up to 25 cycles in some patients.
The clinical data from the patients was collected in the clinical data collection form and matched with the molecular data after completion of the mRNA expression levels determination (Table 1).
We examined XPD, ERCC1 and/or BRCA1 gene expression in formalin-fixed, paraffin-embedded tumor specimens from the 61 patients as previously described (Specht K. et al. Am J Pathol, 2001, 158, 419-429 and Krafft A E. et al. Mol Diagn. 1997, 3, 217-230). After standard tissue sample deparaffinisation using xylene and alcohols, samples were lysed in a tris-chloride, EDTA, sodium dodecyl sulphate (SDS) and proteinase K containing buffer. RNA was then extracted with phenol-chloroform-isoamyl alcohol followed by precipitation with isopropanol in the presence of glycogen and sodium acetate. RNA was resuspended in RNA storage solution (Ambion Inc; Austin Tex., USA) and treated with DNAse I to avoid DNA contamination. cDNA was synthesized using M-MLV retrotranscriptase enzyme. Template cDNA was added to Taqman Universal Master Mix (AB; Applied Biosystems, Foster City, Calif., USA) in a 20-μl reaction with specific primers and probe for each gene. The primer and probe sets were designed using Primer Express 2.0 Software (AB). Quantification of gene expression was performed using the ABI Prism 7900HT Sequence Detection System (AB). The primers and 5′ labeled fluorescent reporter dye (6FAM) probe were as follows: β-actin: forward 5′ TGA GCG CGG CTA CAG CTT 3′, reverse 5′ TCCTTAATGTCACGCACGATTT 3′, probe 5′ ACC ACC ACG GCC GAG CGG 3′; BRCA1: forward 5′ GGCTATCCTCTCAGAGTGACATTTTA 3′, reverse 5′ GCTTTATCAGGTTATGTTGCATGGT 3′, probe 5′ CCA CTC AGC AGA GGG 3′; ERCC1: forward 5′ GGGAATTTGGCGACGTAATTC 3′, reverse 5′ GCG GAG GCT GAG GAA CAG 3′, probe 5′CACAGGTGCTCTGGCCCAGCACATA 3′; XPD: forward 5′ GCTCCCGCAAAAACTTGTGT 3′, reverse 5′ CAT CGA CGT CCT TCC CAA A 3′, probe 5′ ACCCTGAGGTGACACCCCTGC 3′.
Relative gene expression quantification was calculated according to the comparative Ct method using β-actin as an endogenous control and commercial RNA controls (Stratagene, La Jolla, Calif.) as calibrators. Final results, were determined as follows: 2^−(^Δ^Ct sample−^Δ^Ct calibrator), where ΔCT values of the calibrator and sample are determined by subtracting the […]. In all experiments, only triplicates with a standard deviation (SD) of the Ct value <0.20 were accepted. In addition, for each sample analyzed, a retrotranscriptase minus control was run in the same plate to assure lack of genomic DNA contamination.
SAS v8.2 (statistical software) was used for all the statistical analysis. The statistical techniques for univariate, bivariate and multivariate variables were chosen, according with the nature of variables that will be analysed, i.e. when the dependent variable is a temporal variable with censor status the Cox regression would be applied, when correlation between variables will be computed the Pearson and/or Spearman measures would be used. P-values below 0.05 will be considered statistically significant in all tests, when appropriate 95% confidence intervals will be presented too.
A total of 61 paraffin embedded tumor samples were evaluated. […] These samples came from sarcoma patients before being treated with a chemotherapy agent.

[2] = system: HCC1937 breast cancer cell line; settings: wild-type BRCA1 reconstituted vs BRCA1-negative HCC1937; cited from earlier work
[3] = BRCA1 mRNA <1.97 (low expression)
[4] = BRCA1 mRNA >=1.97 (high expression)
[5] = ERCC1 mRNA <5.86 (low expression)
[6] = ERCC1 mRNA >=5.86 (high expression)
[7] = Kaplan-Meier FIG. 2A, high BRCA1 expressers
[8] = Kaplan-Meier FIG. 2A, high BRCA1 expression
[9] = Kaplan-Meier FIG. 2A, low BRCA1 expression
[10] = Kaplan-Meier FIG. 2B, high ERCC1 expression
[11] = Kaplan-Meier FIG. 2B, low ERCC1 expression
[12] = Kaplan-Meier FIG. 2C (XPD), high expression
[13] = Kaplan-Meier FIG. 2C (XPD), low expression
[14] = XPD mRNA <1.99 (low expression)
[15] = XPD mRNA >=1.99 (high expression)

In the case of `COc1cc2c(cc1O)CCN[C@]21CS[C@@H]2c3c(OC(C)=O)c(C)c4c(c3[C@H](COC1=O)N1[C@@H]2[C@H]2c3c(cc(C)c(OC)c3O)C[C@@H]([C@@H]1O)N2C)OCO4` [ET-743, ecteinascidin 743], the “increase in objective response, low BRCA1 subpopulation vs full cohort” value ([1]; 16% to 21%) is reported as 1.3 fold, the “increase in PFS6 rate, low BRCA1 subpopulation vs full cohort” value ([1]; 24% to 38%) is reported as 1.6 fold and the “overall response rate (RR), PR + Minor Responses” value ([1]; 55 evaluable patients) is reported as 16%. For the same compound, the “overall response rate (RR), only Partial Responses” value ([1]; 55 evaluable patients) was 15%, the “patients achieving progression free survival >=6 months (PFS6)” value ([1]; 55 evaluable patients, (8 PR+1 MR+6 SD)/55) was 27% and the “PD (number of patients)” value ([1]; BRCA1 cohort, Total) was 30. The “PFS <6 (number of patients)” value ([1]; BRCA1 cohort, Total) was 38, the “PFS >=6 (number of patients)” value ([1]; BRCA1 cohort, Total) was 12 and the “PR + MR (number of patients)” value ([1]; BRCA1 cohort, Total) was 8. For the same compound, the “PD (number of patients)” value ([1]; BRCA1 mRNA <1.97) was 12, the “PFS <6 (number of patients)” value ([1]; BRCA1 mRNA <1.97) was 16 and the “PFS >=6 (number of patients)” value ([1]; BRCA1 mRNA <1.97) was 9. The “PR + MR (number of patients)” value ([1]; BRCA1 mRNA <1.97) was 5, the “objective response (PR+MR)” value [1, 3] was 21% and the “patients reaching PFS6 (PFS >=6 months)” value [1, 3] was 38% and 36%. The “PD (number of patients)” value ([1]; BRCA1 mRNA >=1.97) was 18, the “PFS <6 (number of patients)” value ([1]; BRCA1 mRNA >=1.97) was 22 and the “PFS >=6 (number of patients)” value ([1]; BRCA1 mRNA >=1.97) was 3. For the same compound, the “PR + MR (number of patients)” value ([1]; BRCA1 mRNA >=1.97) was 3, the “objective response (PR+MR)” value [1, 4] was 11% and the “patients reaching PFS6 (PFS >=6 months)” value [1, 4] was 12%. For the same compound, the “PD (number of patients)” value ([1]; ERCC1 cohort, Total) was 22, the “PFS <6 (number of patients)” value ([1]; ERCC1 cohort, Total) was 29 and the “PR + MR (number of patients)” value ([1]; ERCC1 cohort, Total) was 6. For the same compound, the “PD (number of patients)” value ([1]; ERCC1 mRNA <5.86) was 12, the “PFS <6 (number of patients)” value ([1]; ERCC1 mRNA <5.86) was 16 and the “PFS >=6 (number of patients)” value ([1]; ERCC1 mRNA <5.86) was 3. For the same compound, the “PR + MR (number of patients)” value ([1]; ERCC1 mRNA <5.86) was 2, the “objective response (PR+MR)” value [1, 5] was 11% and the “patients reaching PFS6 (PFS >=6 months)” value [1, 5] was 16%. The “PD (number of patients)” value ([1]; ERCC1 mRNA >=5.86) was 10, the “PFS <6 (number of patients)” value ([1]; ERCC1 mRNA >=5.86) was 13 and the “PFS >=6 (number of patients)” value ([1]; ERCC1 mRNA >=5.86) was 6. For the same compound, the “PR + MR (number of patients)” value ([1]; ERCC1 mRNA >=5.86) was 4, the “objective response (PR+MR)” value [1, 6] was 21% and the “patients reaching PFS6 (PFS >=6 months)” value [1, 6] was 32%. For the same compound, the “PFS (median)” value [1, 7] was 1.5 months, the median survival [1, 7] was 5.4 months and the “median survival at 12 months” value [1, 8] was 35.71%. For the same compound, the “percentage of patients with PFS6” value [1, 8] was 11.54%, the “PFS (median)” value [1, 9] was 2.3 months and the median survival [1, 9] was 11.7 months. The “median survival at 12 months” value [1, 9] was 42.23%, the “percentage of patients with PFS6” value [1, 9] was 41.67% and the median survival ([1]; Kaplan-Meier FIG. 2B, high ERCC1 expressers) was 19.4 months. For the same compound, the PFS6 [1, 10] was 31.58%, the “median PFS” value [1, 10] was 2.2 months and the PFS6 [1, 11] was 21.05%. The “median PFS” value [1, 11] was 1.4 months, the median survival [1, 11] was 16.8 months and the PFS6 [1, 12] was 30%. For the same compound, the “median PFS” value [1, 12] was 2.0 months, the median survival [1, 12] was 19.4 months and the median survival ([1]; Kaplan-Meier FIG. 2C (XPD), low expressers) was 16.8 months. For the same compound, the PFS6 [1, 13] was 17.65%, the “median PFS” value [1, 13] was 1.2 months and the “PD (number of patients)” value ([1]; XPD cohort, Total) was 22. For the same compound, the “PFS <6 (number of patients)” value ([1]; XPD cohort, Total) was 29, the “PFS >=6 (number of patients)” value ([1]; XPD cohort, Total) was 8 and the “PR + MR (number of patients)” value ([1]; XPD cohort, Total) was 5. The “PD (number of patients)” value ([1]; XPD mRNA <1.99) was 11, the “PFS <6 (number of patients)” value ([1]; XPD mRNA <1.99) was 14 and the “PFS >=6 (number of patients)” value ([1]; XPD mRNA <1.99) was 3. The “PR + MR (number of patients)” value ([1]; XPD mRNA <1.99) was 2, the “objective response (PR+MR)” value [1, 14] was 12% and the “patients reaching PFS6 (PFS >=6 months)” value [1, 14] was 18%. The “PD (number of patients)” value ([1]; XPD mRNA >=1.99) was 11, the “PFS <6 (number of patients)” value ([1]; XPD mRNA >=1.99) was 15 and the “PFS >=6 (number of patients)” value ([1]; XPD mRNA >=1.99) was 5. The “PR + MR (number of patients)” value ([1]; XPD mRNA >=1.99) was 3, the “objective response (PR+MR)” value [1, 15] was 15% and the “patients reaching PFS6 (PFS >=6 months)” value [1, 15] was 25%. The “median duration of the response (PR+MR)” value ([1]; all patients) was 13.6 months, the “range of duration of the response (PR+MR)” value ([1]; all patients) was 44.1 to 3.8 months and the range of survival ([1]; all patients) was 0.1-66.9 months. The median survival ([1]; all patients, 14 patients still censored) was 7.7 months, the “median survival (Kaplan-Meier)” value ([1]; all patients, FIG. 1) was 10.2 months and the “overall progression free survival at 6 months (Kaplan-Meier)” value ([1]; all patients, FIG. 1) was 27.65%. The “objective response (PR+MR)” value ([1]; full cohort with BRCA1 data (8/51)) was 16% and the “PFS6 rate (progression free survival higher than 6 months)” value ([1]; full cohort with BRCA1 data (12/50)) was 24%.
For `N.N.[Cl][Pt][Cl]` [cisplatin], the increase in resistance [2] is listed as 20 fold.

Reference: patent publication US20080293725A1, “Prognostic Molecular Markers” (priority 2004, published 2008)
